Holding throughout (format): cell-based
For assay [1], the system named is Helicobacter pylori strain HpG27. The assay can be described thus: Determination of MIC, broth microdilution, strain HpG27. Conditions: 72 hours of culture, read-out: Minimum inhibitory concentration against helicobacter pylori HpG27. On the procedure: (§1) Anti-Helicobacter pylori activity of each compound is evaluated by a broth microdilution method in an activity experiment, and metronidazole, levofloxacin, clarithromycin and vancomycin used in clinic are selected as positive control drugs.
(§2) Helicobacter pylori strains HpG27, Hp159, Hp129 and Hp26695 provided by Professor Hongkai Bi of Nanjing Medical University. Culture mediums and main reagents: Colombian culture mediums, selective antibiotics (metronidazole, levofloxacin and clarithromycin), serum, and the like.
(§3) The strains were taken out of a refrigerator at −80° C. and placed at room temperature, 200 L of standard strains were accurately sucked, transferred to a solid culture medium, and spread with an L-shaped glass rod, a culture dish loaded with the strains was put into a culture bag, then an AnaeroPack was put into the culture bag, and the culture bag was quickly sealed and then put into a constant temperature incubator at 37° C. to culture for 72 hours. After the end of culture, each strain was identified first, then a lawn on the solid culture medium was scraped off, and the lawn was transferred into 50 mL of liquid culture medium to serve as an original bacterial solution.
(§4) • (1) Sample solutions of the compounds 1 to 9 obtained by separation and purification above were prepared according to a concentration of 1 mg/mL. • (2) In preparation of an MIC plate, a first well was added with 176 μL of culture medium and then added with 3.2 μL of antibacterial drug, and dilution was carried out by multiple proportions to a 7th well; and an 8th well was not added with the drug, but was reserved with 90 μL of culture medium to serve as a control with bacteria but no drug. • (3) In preparation of a bacterial solution, Helicobacter pylori growing at a logarithmic phase on a solid plate was made into a bacterial suspension with a BHI culture medium, an OD600 value of concentration of the bacterial suspension was adjusted to be 0.3 (1×10^8 CFU/mL), and the bacterial suspension was diluted by 10 times to reach 1×10^7 CFU/mL for later use. • (4) In inoculation, 10 μL of bacterial solution was added into the 1st to 8th wells (a concentration of the bacterial solution in each well was about 1.0×10^6 CFU/mL). Results were judged after 72 hours of culture. […] The test was only meaningful when the bacteria in the 8th well of the positive control well (without antibiotics) grew obviously. When there was a single drift in a microdilution method, the highest drug concentration capable of inhibiting the growth of bacteria should be recorded. If there were many drifts, the results should not be reported, and the test should be repeated.
Background: Broth dilution looks for growth in wells or tubes with falling amounts of substance.

Assay [2] deals with Helicobacter pylori strain Hp26695. The assay can be described thus: Determination of MIC, broth microdilution, strain Hp26695. The conditions noted are these: 72 hours of culture, read-out: Minimum inhibitory concentration against helicobacter pylori Hp26695. On the procedure: as §1, §2, §3, §4
Assay [3] concerns Helicobacter pylori strain Hp129. Kind of assay: Determination of MIC, broth microdilution, strain Hp129. The conditions noted are these: 72 hours of culture, (R) beside control drug values, read-out: Minimum inhibitory concentration against helicobacter pylori Hp129. The method, then: as §1, §2, §3, §4
The test system of assay [4] is Helicobacter pylori strain Hp159. The assay can be described thus: Determination of MIC, broth microdilution, strain Hp159. Conditions: 72 hours of culture, (R) beside control drug values, read-out: Minimum inhibitory concentration against helicobacter pylori Hp159. The method, then: as §1, §2, §3, §4
Assay [5] deals with drug-resistant and sensitive Helicobacter pylori. Kind of assay: Determination of MIC, broth microdilution, summary over strains. The conditions noted are these: two kinds of drug-resistant and sensitive Helicobacter pylori; range over strains. On the procedure: as §1, §2, §3, §4

Values after ≈ are worked out from the molar mass of the structure shown. Some results are limits rather than exact numbers.

For twelve molecules, MIC results are on record in patent publication US20240366546A1, “ANTI-HELICOBACTER PYLORI DERIVATIVE CONTAINING DIHYDROSTILBENE PARENT NUCLEUS AND PREPARATION METHOD AND APPLICATION THEREOF” (NANJING UNIVERSITY OF CHINESE MEDICINE, priority 2024, published 2024).

Consider `CC(C)=CCc1cc(CCc2cc(O)cc(O)c2CC=C(C)C)ccc1O` [Compound 9, uralensisol 0], for which the MIC in assay [1] is 8 mg/L (≈ 21.8 µM); in assay [2] it was 8 mg/L (≈ 21.8 µM); in assay [3], 8 mg/L (≈ 21.8 µM); in assay [4] it was 8 mg/L (≈ 21.8 µM); in assay [5], 4 to 8 mg/L (≈ 10.9 to 21.8 µM).

Turning to `C[C@H]1COc2c(N3CCN(C)CC3)c(F)cc3c(=O)c(C(=O)O)cn1c23` [LVX, levofloxacin, reference compound], the MIC in assay [1] stood at 0.25 mg/L (≈ 0.692 µM); in assay [2] it was 0.25 mg/L (≈ 0.692 µM); in assay [3], 8 mg/L (≈ 22.1 µM); in assay [4], 8 mg/L (≈ 22.1 µM).

`CC(=O)Oc1cc(O)cc(CCc2ccc(O)c(CC=C(C)C)c2)c1CC=C(C)C` [Compound 4, uralensisol J]: the MIC in assay [1], in assay [2], in assay [3] and in assay [4] was greater than 16 mg/L in each case.

For the molecule `O=Cc1c(O)cc(O)cc1CCc1ccc(O)cc1` [Compound 8, uralensisol N], the MIC in assay [1], in assay [2], in assay [3] and in assay [4] was greater than 16 mg/L each time.

For the molecule `CC[C@H]1OC(=O)[C@H](C)[C@@H](O[C@H]2C[C@@](C)(OC)[C@@H](O)[C@H](C)O2)[C@H](C)[C@@H](O[C@@H]2O[C@H](C)C[C@H](N(C)C)[C@H]2O)[C@](C)(OC)C[C@@H](C)C(=O)[C@H](C)[C@@H](O)[C@]1(C)O` [CLR, clarithromycin, reference compound], the MIC in assay [1] was 0.008 mg/L (≈ 0.0107 µM); in assay [2] it was 0.008 mg/L (≈ 0.0107 µM); in assay [3], 1 mg/L (≈ 1.34 µM); in assay [4] it was 2 mg/L (≈ 2.67 µM).

For the molecule `CC(C)=CCc1c(O)cc(O)c(CC=C(C)C)c1CCc1ccc(O)cc1` [Compound 6, uralensisol L], the MIC is 4 mg/L (≈ 10.9 µM) in assay [1]; 8 mg/L (≈ 21.8 µM) in assay [2]; 8 mg/L (≈ 21.8 µM) in assay [3]; 8 mg/L (≈ 21.8 µM) in assay [4]; 4 to 8 mg/L (≈ 10.9 to 21.8 µM) in assay [5].

As to `CCC(C)C(=O)Oc1cc(O)cc(CCc2ccc(O)cc2)c1CC=C(C)C` (centres unmarked) [Compound 2], the MIC in assay [1], in assay [2], in assay [3] and in assay [4] was greater than 16 mg/L each time.

Regarding `CC(=O)Oc1cc(O)c(CC=C(C)C)c(CCc2ccc(O)cc2)c1CC=C(C)C` [Compound 7, uralensisol M], the MIC in assay [1] was 8 mg/L (≈ 19.6 µM); in assay [2], 8 mg/L (≈ 19.6 µM); in assay [3] it was 8 mg/L (≈ 19.6 µM); in assay [4] it was 8 mg/L (≈ 19.6 µM); in assay [5], 4 to 8 mg/L (≈ 9.79 to 19.6 µM).

With `COc1cc(O)c(CC=C(C)C)c(CCc2ccc(O)cc2)c1` [Compound 3, uralensisol I], the MIC is 4 mg/L (≈ 12.8 µM) in assay [1]; 4 mg/L (≈ 12.8 µM) in assay [2]; 8 mg/L (≈ 25.6 µM) in assay [3]; 8 mg/L (≈ 25.6 µM) in assay [4]; 4 to 8 mg/L (≈ 12.8 to 25.6 µM) in assay [5].

`COc1c(O)cc(CCc2cc(O)cc(OC(C)=O)c2CC=C(C)C)cc1CC=C(C)C` [Compound 5, uralensisol K]: the MIC in assay [1], in assay [2], in assay [3] and in assay [4] was greater than 16 mg/L each time.

Regarding `CC(C)=CCc1c(CCc2ccc(O)cc2)cc(O)cc1OC(=O)C(C)C` [Compound 1], the MIC in assay [1] was 8 mg/L (≈ 21.7 µM); in assay [2] it was 8 mg/L (≈ 21.7 µM); in assay [3], 8 mg/L (≈ 21.7 µM); in assay [4], 8 mg/L (≈ 21.7 µM); in assay [5] it was 4 to 8 mg/L (≈ 10.9 to 21.7 µM).

For `Cc1ncc([N+](=O)[O-])n1CCO` [MTZ, metronidazole, reference compound], the MIC was determined as 2 mg/L (≈ 11.7 µM) in assay [1], 1 mg/L (≈ 5.84 µM) in assay [2], 32 mg/L (≈ 187 µM) in assay [3] and 16 mg/L (≈ 93.5 µM) in assay [4].
